Experimental data taken from patent US10555923B2, “Method for treating paroxysmal nocturnal hemoglobinuria” (ENZYCHEM LIFESCIENCES CORPORATION, priority 2015, dated 2020).

Key:
C3 [1] = assay: In vitro inhibition of C3 expression in HMC-1 cells (IL-4/TNF-α induced, RT-PCR); type: cell-based, human; settings: IL-4 (5 ng) and TNF-α (10 ng), PLAG 0.1 and 1 μg/mL
Procedure: A blood cell line, HMC-1 (human mast cell, American Type Culture Collection, ATCC, Rockville, Md.) is incubated and maintained at 37° C. under 5% CO2 humid conditions. The medium is IMDM (Life Technologies, Karlsruhe, Germany) containing 10% Fetal Calf Serum (FCS, HyClone, Logan, Utah), 2 mM […], 100 μg/ml penicillin, 100 μg/ml streptomycin (Life Technologies). The cultured HMC-1 cells (1×10^6 cell/ml) are pretreated with 0.1 and 1 μg/mL concentrations of PLAG, followed by treatment with IL-4 (5 ng) and/or TNF-α (10 ng) to induce cellular activities.
The expressed C3 and its mRNA level changes are observed by using RT-PCR (Reverse Transcriptase Polymerase Chain Reaction). The RT-PCR is carried out as follows: the total RNA is separated by the standard protocol and cDNA is synthesized using AccuScript High Fidelity 1st Strand cDNA Synthesis Kit (Stratagene). Two-step RT-PCR reaction is conducted using Oligo-dT primer and reverse transcriptase, pair of primers and Taq polymerase (Takara, Shiga, Japan). […] The product of PCR is separated using 1.5% agarose gel, dyed with ethidium bromide (EtBr), and visualized with Gel Doc 2000 UV trans-illuminator (Bio-Rad Laboratories, Hercules, Calif., USA), and the experimental data is analyzed using Quantity One software (Bio-Rad Laboratories).

C3 [2] = assay: C3 mRNA expression in HepG2 cell line (RT-PCR); type: cell-based, human
Procedure: A liver cell line, HepG2 (American Type Culture Collection, ATCC, Rockville, Md.), is incubated and maintained at 37° C., 5% CO2 humid atmosphere in DMEM medium. When HepG2 cells, which are known to produce complement in culture, are treated with PLAG, the activity of complement is reduced effectively, as confirmed by RT-PCR of mRNA. In the RT-PCR, 5×10^5 HepG2 cells/ml are distributed into 12 well plates and induced C3 for 12 hours with 10% FCS. Then PLAG is added and further cultured for 2 hours. Cells are harvested and mRNA is isolated and RT-PCR is carried out with specific primers for C3; GAPDH is used as an internal control.

C3 [3] = assay: C3 in culture supernatant of HepG2 cells (ELISA); type: cell-based, human; settings: PLAG 1 to 100 μg/ml or S6I 10 and 100 μg/ml, IL-4 and TNF-α 1 hr, incubated 18 hr
Procedure: (§1) The incubated HepG2 cell lines are treated with PLAG (1˜100 μg/ml), followed by IL-4 and TNF-α, reacted for 1 hour, incubated for 18 hours at 37° C. and the supernatant is isolated. Quantitation of the amount of C3 in the cellular culture medium (supernatant) from HepG2 cells is performed by ELISA using a commercially available monoclonal antibody (mAb, R&D Systems) and the manufacture's protocol; the results are presented in FIGS. 3A-3C. C3 is expressed spontaneously under in vitro culture conditions using 10% FCS added to HepG2 cells and incubated for 12 hr. The cells are treated with PLAG from 1 to 100 μg/ml (FIG. 3A, FIG. 3B) or 10 and 100 μg/ml of S6I (FIG. 3C), reacted with IL-4 and TNF-α for 1 hr and then incubated for 18 hr at 37° C. Cellular viability is confirmed using the WST-1 assay (FIG. 3A).

STAT6 [4] = assay: Reporter (luciferase) assay for STAT6 transcriptional activity in HepG2 cells; type: cell-based, human; settings: 10 ng IL-4, PLAG 0.01-10 μg/ml, 12 hour incubation
Procedure: (§2) By using STAT6 inhibitor (S6I), it is confirmed that the reduction of complement 3 in HepG2 cells (human hepatocyte cell line) is regulated by STAT6. […] It is also confirmed that PLAG has selective efficacy on STAT6 over STAT1. FIG. 1 presents graphs showing STAT1 and STAT6 transcriptional activity in the PLAG treated HepG2 cells. NC refers to the unstimulated control cell. For the STAT1 assay, gene transfected HepG2 (human hepatocyte cell line) is treated with 10 ng of IFN-γ and serially diluted PLAG is added (0.01 μg/ml, 0.1 μg/ml, 1 μg/ml, and 10 μg/ml as shown) to see its effect on gene expression in the stimulated cell. For the STAT6 assay, gene transfected HepG2 cells are treated with 10 ng of IL-4 and again serially diluted PLAG is added (0.01 μg/ml, 0.1 μg/ml, 1 μg/ml, and 10 μg/ml as shown) to see its effect on gene expression in the stimulated cell. The assay is carried out following a 12 hour incubation of treated cells.

STAT1 = assay: Reporter assay for STAT1 transcriptional activity in HepG2 cells; type: cell-based, human; settings: 10 ng IFN-γ, PLAG 0.01-10 μg/ml, 12 hour incubation
Procedure: as §2

[5] = Colony forming units (CFUs) in spleen assay in heavily irradiated mice; type: in vivo; settings: 50 mg/kg/d i.p. or p.o.
Procedure: In order to determine the in vivo effect of PLAG on the recovery of hematopoiesis, a CFUs assay is performed in heavily irradiated mice.

HepG2 cells = assay: WST-1 cell viability assay in HepG2 cells; type: cell-based; settings: PLAG 1 to 100 μg/ml
Procedure: as §1

C3 [6] = assay: C3 inhibition in HMC-1 cells (ELISA); type: cell-based, human; settings: PLAG 1, 10 and 100 μg/mL for 2 hours, activated 72 hours with 10% FBS
Procedure: In a separate experiment, human mast cells (HMC-1, 1×10^5 cell/ml) are treated with PLAG of various concentrations (1, 10 and 100 μg/mL) for 2 hours. The cells are activated for 72 hours with 10% FBS (Fetal bovine serum) containing IMDM. The decrease of C3 is confirmed by ELISA analysis of the expressed protein.

STAT6 [7] = target: T1, STAT6 (Homo sapiens, UniProt P42226); assay: Dephosphorylation of STAT6 in IL-4 stimulated cell lysates (Western blot); type: cell-based; settings: U937, Jurkat and A549 cells; PLAG 0.01 to 10 μg/ml; 10 ng/ml IL-4; 15 min after stimulation
T1 construct: using anti-phosphorylated STAT6 in U937, A549, and Jurkat cell lysates treated with PLAG; endogenous in cells; host or cells: U937, A549, Jurkat
T1 sequence (P42226 1-847): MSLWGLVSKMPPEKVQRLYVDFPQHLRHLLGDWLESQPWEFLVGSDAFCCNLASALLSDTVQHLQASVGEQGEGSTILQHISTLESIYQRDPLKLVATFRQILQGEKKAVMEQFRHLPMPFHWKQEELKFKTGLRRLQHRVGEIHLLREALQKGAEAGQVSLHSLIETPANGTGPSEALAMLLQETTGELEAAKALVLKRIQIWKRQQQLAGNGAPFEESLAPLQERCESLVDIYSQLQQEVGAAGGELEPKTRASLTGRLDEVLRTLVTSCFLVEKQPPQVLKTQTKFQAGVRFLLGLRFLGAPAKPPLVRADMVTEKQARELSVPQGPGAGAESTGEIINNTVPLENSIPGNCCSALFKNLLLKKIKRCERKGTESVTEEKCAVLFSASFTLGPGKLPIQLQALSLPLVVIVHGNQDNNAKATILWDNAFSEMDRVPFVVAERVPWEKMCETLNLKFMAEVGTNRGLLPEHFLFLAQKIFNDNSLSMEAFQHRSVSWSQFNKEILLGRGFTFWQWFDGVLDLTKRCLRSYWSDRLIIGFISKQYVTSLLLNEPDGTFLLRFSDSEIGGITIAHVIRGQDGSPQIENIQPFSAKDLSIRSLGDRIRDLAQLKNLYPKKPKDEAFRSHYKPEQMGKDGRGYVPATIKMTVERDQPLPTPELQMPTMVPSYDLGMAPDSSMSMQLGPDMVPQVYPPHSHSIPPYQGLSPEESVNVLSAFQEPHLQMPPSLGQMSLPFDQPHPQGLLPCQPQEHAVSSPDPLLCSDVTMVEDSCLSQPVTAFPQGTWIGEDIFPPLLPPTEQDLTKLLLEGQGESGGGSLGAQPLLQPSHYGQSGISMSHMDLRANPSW
Procedure: Dephosphorylation of STAT6 is examined using anti-phosphorylated STAT6 in U937, A549, and Jurkat cell lysates treated with PLAG at a concentration from 0.01 to 10 μg/ml. Phosphorylation of STAT6 is induced by treatment with 10 ng/ml of IL-4. Dephosphorylation of STAT1 is examined in the U937 cell lysate treated with PLAG (0.01 to 10 μg/ml). Phosphorylation of STAT1 is induced by 10 ng of IFN-γ treatment. Dephosphorylation of STAT1 and STAT6 is examined at 15 min after stimulation with IFN-γ and IL-4 respectively, in the PLAG pretreated cells. […] The transcriptional activity of STAT6 is decreased by the dephosphorylation of STAT6. […] No effect of PLAG on STAT1 phosphorylation is observed.

[8] = test system: hematopoietic stem cells and megakaryocytes; settings: reported in WO 99/26640; cited from earlier work
complement 3 = assay: Complement 3 activation by chemotherapeutic agents in mouse model; type: in vivo; settings: mice; PLAG 50 mg/kg daily 3 weeks with Gemcitabine, Cyclosphosphamide or Tamoxifen
Procedure: The effect of PLAG for treatment of chemotherapy-induced thrombocytopenia (CIT) is evaluated in an animal model. Anti-cancer agents (Gemcitabine 50 mg/kg, Cyclosphosphamide 100 mg/kg, or Tamoxifen 50 mg/kg) are dosed daily for 3 weeks; PLAG is also administered at 50 mg/kg daily for 3 weeks.
It is believed that the leukopenia and thrombocytopenia of these agents and other chemotherapeutic agents may be due at least in part to a specific complement-mediated toxicity. This is seen in FIG. 5.

SMILES	expression of C3 (C3 [1])	inhibition of C3 expression (mRNA, RT-PCR) (C3 [2]; S6I 10 and 100 μg/ml, compared with PLAG 1 and 10 μg/ml)	expression of C3 (amount in supernatant, ELISA) (C3 [3])	STAT6 transcriptional activity (expression) (STAT6 [4])	STAT1 transcriptional activity (expression) (STAT1)	number of splenic nodules, primitive progenitor cells and megakaryocytes [5]	inhibition of C3 expression (mRNA, RT-PCR) (C3 [2]; PLAG 1 μg/ml, 2 hours)	inhibition of C3 expression (mRNA, RT-PCR) (C3 [2]; PLAG 10 μg/ml, 2 hours)	cellular propagation and death (WST-1 viability) (HepG2 cells)	decrease of C3 (ELISA of expressed protein) (C3 [6])	IL-4 treatment induced STAT6 phosphorylation (STAT6 [7])	growth-stimulating activities of hematopoietic stem cells and megakaryocytes [8]	blockage of chemotherapy-induced complement 3 activation (complement 3)
NC(=O)c1cnc(NCCc2ccc(O)c(Cl)c2)nc1NCc1ccccc1 [S6I, reference compound]	suppresses expression of C3	comparable	–	–	–	–	–	–	–	–	–	–	–
CCCCC/C=C\C/C=C\CCCCCCCC(=O)OC(COC(C)=O)COC(=O)CCCCCCCCCCCCCCC (racemic) [PLAG, 1-palmitoyl-2-linoleoyl-3-acetylglycerol]	suppressed by PLAG on a concentration dependent basis	–	decreased dose-dependently	significant, dose-dependent effect	no effect	marked increase	somewhat	entirely	does not affect the cellular propagation and death	proportional to the concentration of PLAG	inhibited with increasing PLAG concentrations	have growth-stimulating activities	largely blocked
